Tested on: B-cells (CD22) in human whole blood
Experiment: Whole blood B-cell depletion assay
Format: cell-based
Details: overnight 37° C.; for % Change: B-cell depletion vs non-treated group
Experimental: To determine if the anti-CD19 antibodies were capable of depleting B-cells, a whole blood B-cell depletion assay was set up.
Human whole blood was purchased from AllCells Inc. (Berkeley, Calif.) and delivered the same day at room temperature. Two ml of whole blood was incubated in the absence or presence of […] of the indicated antibodies, or PBS as the untreated group. The blood-antibody mixture was incubated overnight at 37° C. with 5% CO2. On the day of the experiment, the blood was lysed twice with RBC lysis buffer at 1:10 ratio by incubating for 10 minutes followed by centrifugation. After the second spin, the cell pellets were washed once with FACS buffer (PBS plus Calcium and Magnesium with 2% FBS and 20% versene), and followed by FAGS staining with anti-CD3 antibody (Becton Dickinson) as the T-Cell makers and anti-CD22 antibody (Becton Dickinson) as a B-cell makers using standard Flow cytometry protocols. Cells were incubated on ice for 20 min prior to the final washes and resuspended in […] propidium iodide solution (Sigma) in FACS buffer. Data was collected by flow cytometry using a FASCalibur system and CellQuest software by Becton Dickinson, and analyzed via FlowJo software using lymphocyte size gating. Percent change was calculated by determining the % positive B-cells in the non-treated group minus the % positive B-cells in the antibody treated group divided by % positive B-cells in the non treated group times 100. From a healthy blood donor, 8.7% B-cells remained in the blood following an overnight incubation (no antibody). Incubating whole blood with […] of positive control Rituxan led to a 46% depletion in the number of B-cells when compared to the untreated, no antibody group.

Rituxan: positive control in the whole blood B-cell depletion assay [reference compound]
% Change: 46% | % Change (listed as Rituxan ®): 46.3% | % Positive (CD22) (1-30 mg/ml antibody): 4.7%

Source: patent US20100104509A1, “HUMAN ANTIBODIES THAT BIND CD19 AND USES THEREOF” (Medarex, Inc., priority 2006, published 2010)
